{"source": "patent US6710030B1", "about": "“Contortrostain (CN) and methods for its use in preventing metastasis and other conditions” (University of Southern California, priority 1993, dated 2004)", "key": {"MDA-MB-435 cells [1]": {"system": "MDA-MB-435 cells", "experiment": "Binding of MDA-MB-435 cells to immobilized CN", "assay_type": "cell-based, human", "conditions": "CN at 0.1 μg/well; read-out: IC50 for blocking binding of MDA-MB-435 cells to immobilized CN", "procedure": "The effect of CN on binding of highly metastatic human breast cancer cells, MDA-MB-435 cell line, to ECM proteins was examined. Human fibronectin and vitronectin were immobilized in the wells of 96-well microtiter plates. […] In a variation of the above experiments, CN was immobilized. […] Referring to FIGS. 12 and 13, varying concentrations of GRGDSP (FIG. 12) or EDTA (FIG. 13) were used to inhibit binding of human mammary carcinoma cells to immobilized CN. CN was at 0.1 μg/well. The vertical line at each data point indicates the y-axis error bar. All experiments were conducted as three sets of triplicates for each data point."}, "T24 cells": {"system": "T24 cells", "experiment": "Phosphotyrosine immunoblot, T24 cells", "assay_type": "cell-based, human", "conditions": "pretreated 30 min, 10 nM contortrostatin", "procedure": "(§1) Cell culture, preparation and stimulation—T24 cells were maintained in RPMI 1640 medium containing 5% fetal bovine serum, and MDA-MB-435 and 293 cells were maintained in Dulbecco's modified Eagle's medium with 10% serum at 37° C. in 5% CO2. Cells were washed with phosphate-buffered saline (PBS) and starved in the appropriate serum-free medium for 6 h at 37° C. Cells were detached by brief treatment with 0.05% trypsin/0.02% EDTA in PBS and collected by centrifugation, resuspended in soybean trypsin inhibitor (1 mg/ml in serum-free medium), and washed in 2% bovine serum albumin/serum-free medium. Cells were maintained in suspension for 1 h in 2% bovine serum albumin/serum-free medium at 37° C. with end-over-end agitation. Quiescent cells (3×10^6/ml) were treated with disintegrins or other reagents while in suspension, or were allowed to adhere to Matrigel (Becton Dickinson, Bedford, Mass.) diluted 1:100 with serum-free medium during treatment.\nLysate preparation and immunoprecipitation—Suspended and adherent cells were washed twice with cold PBS and lysed in cold lysis buffer (50 mM Tris, pH 8.0, 150 mM NaCl, 1% Nonidet P-40, 0.5% deoxycholate, 0.1% SDS, protease inhibitor cocktail, 1 mM sodium pyrophosphate, 1 mM sodium orthovanadate, 50 mM sodium fluoride). […]"}, "MDA-MB-435 cells [2]": {"system": "MDA-MB-435 cells", "experiment": "Phosphotyrosine immunoblot, MDA-MB-435 cells", "assay_type": "cell-based, human", "procedure": "as §1\nLysate preparation and immunoprecipitation—Suspended and adherent cells were washed twice with cold PBS and lysed in cold lysis buffer (50 mM Tris, pH 8.0, 150 mM NaCl, 1% Nonidet P-40, 0.5% deoxycholate, 0.1% SDS, protease inhibitor cocktail, 1 mM sodium pyrophosphate, 1 mM sodium orthovanadate, 50 mM sodium fluoride). After 10-15 min incubation on ice, insoluble material was removed by centrifugation at 14,000 RPM in a microcentrifuge for 15 min. Supernatants were collected and total protein concentrations standardized by the BCA protein assay (Pierce, Rockford, Ill.). Immunoprecipitation was carried out by incubating whole cell lysates (200 μg total protein) with 1.25 μg anti-FAK or anti-CAS mAb 4-6 h at 4° C. followed by 20 μl protein G-agarose overnight at 4° C. Immunoprecipitates were washed 4 times in lysis buffer without inhibitors and dissociated by adding SDS-PAGE sample buffer and boiling 5 min. Whole cell lysates (30 μg total protein) or immunoprecipitates were resolved by 7.5% SDS-polyacrylamide gel electrophoresis and transferred to nitrocellulose membranes. […]"}, "[3]": {"system": "canine carotid artery thrombosis model", "experiment": "Reoccluding canine carotid artery thrombosis model", "assay_type": "in vivo", "from_the_text": "The model of carotid artery thrombosis in the anesthetized canine described is a modification of one developed for the study of experimentally-induced coronary artery thrombosis [Romson, J. L. et al., Thromb. Res. 17:841 (1980)]. The experimental procedure results in the formation of a platelet rich intravascular thrombus at the site of an electrolytically-induced endothelial lesion in proximity to a distal arterial stenosis. The carotid artery is selected for the experimental model, thereby allowing one vessel to be used as a control and the other to be used after administration of the thrombolytic and antithrombotic therapy. APSAC (anisoylated plasminogen streptokinase activator complex) has been used as the thrombolytic agent successfully in this model. […] The lytic-antithrombotic combination of agents may then be administered to only one of the occluded vessels; this allows for an internal control and eliminates those animals that may not form thrombi due to causes unrelated to the vessel wall injury and subsequent occlusive thrombus formation, i.e., low circulating platelet counts, enhanced spontaneous thrombolysis, presence of heart worms, etc. Parameters which are recorded include repeated measures of: phasic and mean carotid artery blood flow velocity using an ultrasonic flow probe, time to thrombotic occlusion, time to recannulization, ex vivo platelet aggregation, prothrombin time, thrombin time, activated partial thromboplastin time, red cell and white cell counts, hematocrit, EKG profile and body temperature, before and after administration of APSAC or APSAC plus CN to separate groups of animals.\nConditioned male mongrel dogs (8-10 kg) have been used for all in vivo studies. Dogs are anesthetized with sodium pentobarbital, intubated and allowed to breath room air under positive pressure respiration. Arterial blood gasses and pH determinations are made every 45 minutes and appropriate adjustments made to maintain the blood gasses and arterial pH within normal limits. Both common carotid arteries and the right internal jugular vein are exposed. A catheter is inserted into the jugular vein for blood sampling and administration of the test drug. Arterial blood pressure is monitored from the cannulated femoral artery with the use of a blood pressure transducer. A Doppler flow probe is placed on each common carotid artery proximal to both the point of insertion of the intraarterial electrode and the mechanical constrictor. […] Blood flow velocity in the carotid vessels is monitored continuously. […]\nElectrolytic injury to the intimal surface of each carotid vessel is accomplished with the use of an intravascular electrode. […] The current delivered to each vessel is monitored continuously and maintained at 300 μA. […]"}, "platelets": {"system": "platelets", "conditions": "measured by e.g. serotonin release from dense granules; cited from earlier work"}, "[4]": {"system": "acute thrombotic reocclusion", "conditions": "added to heparin plus tPA; cited from earlier work"}, "[5]": {"system": "coronary artery thrombosis", "conditions": "with recombinant tPA and heparin; cited from earlier work"}}, "note": "Where “and” joins values, the source holds several entries; their conditions need not be identical. Equal entries are not always repeated.", "data": [{"compound": "O=C(O)CN(CCN(CC(=O)O)CC(=O)O)CC(=O)O", "note": "[EDTA]", "values": [{"measurement": "IC50", "setting": "MDA-MB-435 cells [1]", "value": 800, "unit": "µM"}]}, {"compound": "Cc1ccc(-c2nn(C(C)(C)C)c3ncnc(N)c23)cc1", "note": "[PP1, reference compound]", "values": [{"measurement": "concentration for complete elimination of contortrostatin-induced signals", "setting": "T24 cells", "value": 100, "unit": "µM"}, {"measurement": "concentration for complete inhibition of contortrostatin-induced tyrosine phosphorylation", "setting": "MDA-MB-435 cells [2]; pretreated 30 min, 10 nM contortrostatin", "value": 10, "unit": "µM"}]}, {"compound": "anisoylated plasminogen streptokinase activator complex [APSAC]", "values": [{"measurement": "RCA Thrombus, weight of residual thrombus, individual dog", "setting": "[3]; Dog # 1-6, listed as APSAC Control", "value": "27.3 mg and 47.6 mg and 90.5 mg and 60.1 mg and 67.5 mg and 78.5 mg"}, {"measurement": "carotid artery patency after infusion", "setting": "[3]; dog, in vivo", "value": "reoccluded and remained closed for the duration of the study"}, {"measurement": "RCA Thrombus, weight of residual thrombus, Mean", "setting": "[3]; group mean", "value": 61.9, "unit": "mg"}, {"measurement": "Thrombus weight per kg (dog weight)", "setting": "[3]; group mean", "value": 4.1}]}, {"compound": "applaggin", "values": [{"measurement": "platelet release", "setting": "platelets", "value": "also inhibits platelet release"}]}, {"compound": "echistatin (QCESGPCCRNCKFLKEGTICKRARGDDMDDYCNGKTCDCPRNPHKGPAT) [reference compound]", "values": [{"measurement": "effect on contortrostatin (10 nM)-induced tyrosine phosphorylation", "setting": "MDA-MB-435 cells [2]; 1 μM, added simultaneously, 10 min", "value": "completely abrogated"}, {"measurement": "effect alone on tyrosine phosphorylation", "setting": "MDA-MB-435 cells [2]; concentrations up to 1 μM", "value": "no effect on tyrosine phosphorylation"}, {"measurement": "incidence of acute thrombotic reocclusion", "setting": "[4]", "value": "dramatic reductions in the incidence of acute thrombotic reocclusion"}]}, {"compound": "kistrin", "values": [{"measurement": "effective dose sufficient to prevent reocclusion", "setting": "[5]", "value": 4, "unit": "µg/kg/min"}]}]}
